For the test, the system named is M. tuberculosis H37Rv growth inhibition with meropenem. Kind of test: dose response, H37Rv, with and without meropenem (AID 434987).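 Also: growth over 7 days at 37 °C before Alamar Blue read on day 9.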
[1] abbreviates: M. tuberculosis H37Rv growth inhibition, measured here: IC50 without meropenem.
[2] abbreviates: M. tuberculosis H37Rv growth inhibition, measured here: IC90 without meropenem.
Where [3] appears, read: measured here: IC90 with meropenem.

One may read the IC50 as the concentration at which inhibition is half-maximal. For orientation: IC90 means the concentration needed for an effect of 90%. Low readings indicate greater potency, high ones weaker potency.

Active and inactive are the calls of the source. No rule for the calls is given here. A value given as a limit tells only on which side of the number the result lay.

On to `CSc1nc(-c2ccc(Cl)cc2)nn1S(=O)(=O)c1ccccc1`, for which the IC50 was 9.85 µM. In addition, the IC50 under setting [1] is greater than 100 µM. Moreover, the IC90 under setting [2] was greater than 100 µM. Moreover, the IC90 under setting [3] was greater than 100 µM.

For `CC(=O)Nc1cccc(-n2nnc(SCC(=O)Nc3ccc(F)c(Cl)c3)n2)c1`, the IC50 was > 100 µM (inactive). Under setting [1], this compound yielded a half-maximal inhibitory concentration (IC50) greater than 100 µM. Also, the IC90 under setting [2] was greater than 100 µM. This compound also showed an IC90 under setting [3] greater than 100 µM.

For `COc1ccc(-c2cc(C(N)=O)nc(N3CCCCCC3)n2)cc1`, the IC50 was 3.95 µM. Moreover, the IC50 under setting [1] is greater than 100 µM. Further, under setting [2], the IC90 was greater than 100 µM. In addition, under setting [3], the IC90 was greater than 100 µM.

As for `COc1c(NC(C)=O)c2ccccc2c2ccccc12`, the IC50 is > 100 µM (inactive). This compound had an IC50 under setting [1] greater than 100 µM. Moreover, the 90% effect concentration (IC90) under setting [2] was greater than 100 µM. The IC90 under setting [3] is greater than 100 µM.

For the compound `CCOC(=O)c1nn(-c2ccc(Cl)cc2)cc1O`, the IC50 is > 100 µM (inactive). In addition, the IC50 under setting [1] was greater than 100 µM. For the same compound, the IC90 under setting [2] was greater than 100 µM. The compound further showed an IC90 under setting [3] greater than 100 µM.

With `CC(=O)c1c(C)[nH]c(C(=O)OCC(=O)Nc2nnc(-c3ccccc3)o2)c1C`, the IC50 was 4.19 µM. The compound further had an IC50 under setting [1] greater than 100 µM. The compound further registered an IC90 under setting [2] greater than 100 µM. The compound further gave an IC90 under setting [3] greater than 100 µM.

Consider `CCCOc1ccccc1NC(=O)/C=C/C(N)=O`, for which the IC50 is 13.4 µM (inactive). This compound displayed an IC50 under setting [1] of 26.8 µM. In addition, the IC90 under setting [2] is 33.8 µM. Also, the IC90 under setting [3] stood at 27.7 µM.

For the compound `Cc1ccc(CC(=O)Nc2nc3ccccc3[nH]2)cc1C`, the IC50 is 6.31 µM. Also, the IC50 under setting [1] was greater than 100 µM. Also, under setting [2], the IC90 is greater than 100 µM. The IC90 under setting [3] is greater than 25 µM.

Take `CCOc1ccc2cc(S(=O)(=O)N3CCCCC3)ccc2c1`: the IC50 was > 100 µM (inactive). This compound also showed a 50% inhibitory concentration (IC50) under setting [1] greater than 100 µM. This compound also displayed an IC90 under setting [2] greater than 100 µM. This compound also displayed a concentration for an effect of 90% (IC90) under setting [3] greater than 100 µM.

`CC(NC(=O)CSc1nc2ccccc2c(=O)[nH]1)c1ccccc1` (stereo not drawn): the IC50 was 18.9 µM (inactive). Also, the IC50 under setting [1] is 23.8 µM. In addition, under setting [2], the IC90 was greater than 100 µM. The IC90 under setting [3] worked out at 60.9 µM.

On to `N#C/C(C(=O)NCc1ccco1)=C1/SC=C(c2ccccc2)N1c1ccccc1`, for which the IC50 was > 100 µM (inactive). For the same compound, under setting [1], the IC50 is greater than 100 µM. The compound also had an IC90 under setting [2] greater than 100 µM. Further, the 90% effect concentration (IC90) under setting [3] was greater than 100 µM.

Regarding `CCCc1nc2oc3c(OCC)ncnc3c2c2c1COC(C)(C)C2`, the IC50 is 72.5 µM (inactive). For the same compound, the IC50 under setting [1] was greater than 100 µM. The compound further showed an IC90 under setting [2] greater than 100 µM. This compound also gave an IC90 under setting [3] greater than 100 µM.

Turning to `O=C(Cc1ccccc1)NC(=S)Nc1ccc(N2CCCCC2)cc1`, the IC50 is > 100 µM (inactive). The same compound returned an IC50 under setting [1] greater than 100 µM. Also, under setting [2], the IC90 is greater than 100 µM. Besides, the IC90 under setting [3] is greater than 100 µM.

`CCCn1nc(NC(=O)c2ccco2)c2cc3cc(C)ccc3nc21`: the IC50 was > 100 µM (inactive). Moreover, the IC50 under setting [1] is greater than 100 µM. Further, under setting [2], the IC90 was greater than 100 µM. The compound further returned a 90% effect concentration (IC90) under setting [3] greater than 100 µM.

Consider `CCOC(=O)/C=c1\s/c(=C\c2c(OC)ccc3ccccc23)c(=O)n1CC(=O)NCC1CCCO1` (stereo not drawn), for which the IC50 was > 100 µM (inactive). Under setting [1], this compound gave an IC50 greater than 100 µM. Further, under setting [2], the 90% effect concentration (IC90) is greater than 100 µM. Under setting [3], this compound returned an IC90 greater than 100 µM.

Turning to `Cc1ccc(/C=C2/SC(=S)N(CC(=O)Nc3ncc(Cc4ccc(C)cc4)s3)C2=O)cc1`, the IC50 was > 100 µM (inactive). Also, the IC50 under setting [1] is greater than 100 µM. The compound further showed an IC90 under setting [2] greater than 100 µM. The same compound came in with a 90% effect concentration (IC90) under setting [3] greater than 100 µM.

On to `Nc1cc(=O)nc(SCc2ccccc2)n1Cc1ccco1`, for which the IC50 is 87.3 µM (inactive). Under setting [1], this compound gave an IC50 greater than 100 µM. Under setting [2], this compound returned an IC90 greater than 100 µM. The IC90 under setting [3] is greater than 100 µM.

In the case of `CC(C)(C)Nc1nc(Nc2ccc([N+](=O)[O-])cc2)nc(NC(C)(C)C)n1`, the IC50 was > 100 µM (inactive). Under setting [1], this compound registered an IC50 greater than 100 µM. The IC90 under setting [2] is greater than 100 µM. Besides, the IC90 under setting [3] is greater than 100 µM.

Consider `O=C(Nc1ccccc1N1CCCC1)c1ccc2c(c1)OCO2`, for which the IC50 is 72.3 µM (inactive). Also, the IC50 under setting [1] worked out at 87.3 µM. Also, the IC90 under setting [2] is greater than 100 µM. Under setting [3], this compound showed an IC90 greater than 100 µM.

Regarding `COc1ccc(Cl)cc1NC(=O)C/C(C)=N/NC(=O)CC#N`, the IC50 was 7.99 µM. The compound further returned an IC50 under setting [1] greater than 100 µM. Under setting [2], the concentration for an effect of 90% (IC90) was greater than 100 µM. For the same compound, under setting [3], the IC90 was greater than 100 µM.

For the compound `CC(O)/C=C/c1ccc2ccccc2n1` (stereo not drawn), the IC50 is 27.7 µM (inactive). Under setting [1], this compound showed an IC50 of 53.9 µM. Also, the IC90 under setting [2] was greater than 100 µM. This compound had an IC90 under setting [3] of 57.5 µM.

For the compound `COc1ccc(-c2cc(C(F)(F)F)nc(SCC(=O)Nc3sc4c(c3C#N)CCC4)n2)cc1`, the IC50 is 94 µM (inactive). The IC50 under setting [1] was greater than 100 µM. The compound also registered an IC90 under setting [2] greater than 100 µM. In addition, the IC90 under setting [3] is greater than 100 µM.

For the compound `Cc1cc(C)c(NC(=O)CC(C)(C)C)c(Cl)c1`, the IC50 is 76.4 µM (inactive). The compound also yielded an IC50 under setting [1] greater than 100 µM. Under setting [2], this compound yielded an IC90 greater than 100 µM. Under setting [3], the 90% effect concentration (IC90) was greater than 100 µM.

Take `CCCCNC(=O)c1onc(CSc2ccccc2CC)c1C(=O)O`: the IC50 is 22.3 µM (inactive). The compound further came in with an IC50 under setting [1] of 44.7 µM. The compound also returned an IC90 under setting [2] greater than 100 µM. This compound registered an IC90 under setting [3] of 23.7 µM.

Take `Cc1ccc2occ(/C=C/C(=O)c3ccccc3O)c(=O)c2c1`: the IC50 was 50.2 µM (inactive). The same compound came in with an IC50 under setting [1] greater than 100 µM. For the same compound, the 90% effect concentration (IC90) under setting [2] is greater than 100 µM. Under setting [3], this compound yielded an IC90 greater than 100 µM.

Consider `O=C(CN1CCC(O)(c2ccc3c(c2)OCO3)CC1)OC1CCCCC1`, for which the IC50 was 12.8 µM. Under setting [1], this compound registered an IC50 of 38.5 µM. Also, the IC90 under setting [2] was greater than 100 µM. The IC90 under setting [3] stood at 35.3 µM.

In the case of `COc1cc(NC(=O)c2ccc(Cl)cc2)c(OC)cc1NC(=O)CN1CCOCC1`, the IC50 is > 100 µM (inactive). Under setting [1], this compound registered an IC50 greater than 100 µM. This compound returned an IC90 under setting [2] greater than 100 µM. Moreover, under setting [3], the IC90 is greater than 100 µM.

Consider `Cn1c(SCC(=O)OC2CCCCC2)nnc1-c1ccc2c(c1)OCO2`, for which the half-maximal inhibitory concentration (IC50) was 7.93 µM. The compound further came in with an IC50 under setting [1] of 30.5 µM. This compound had an IC90 under setting [2] of 70 µM. In addition, the IC90 under setting [3] is 34.9 µM.

As to `Cc1nn(-c2ccccc2)c(N2CCCC2)c1/C=C1\N=C(c2ccc(F)cc2)OC1=O`, the IC50 is 10.7 µM (inactive). Under setting [1], this compound registered an IC50 of 23.4 µM. In addition, the IC90 under setting [2] came to 26.8 µM. The compound also showed an IC90 under setting [3] of 22.9 µM.

With `CC1CN(C2CCCCC2)c2nc3c(c(=O)[nH]c(=O)n3C)n2C1` (stereo not drawn), the IC50 is > 100 µM (inactive). Moreover, the IC50 under setting [1] was greater than 100 µM. The compound further had a concentration for an effect of 90% (IC90) under setting [2] greater than 100 µM. Under setting [3], this compound returned a 90% effect concentration (IC90) greater than 100 µM.

For `COC(=O)c1ccc(/C=N\NC(=O)c2ccc(C)cc2Cl)cc1`, the IC50 is > 100 µM (inactive). This compound also returned an IC50 under setting [1] greater than 100 µM. The same compound yielded an IC90 under setting [2] greater than 100 µM. Under setting [3], this compound gave an IC90 greater than 100 µM.

`Cc1nn(C)c(C(=O)NC(=S)Nc2ccccc2Br)c1Cl`: the IC50 was > 100 µM (inactive). Besides, the IC50 under setting [1] is greater than 100 µM. Moreover, the IC90 under setting [2] was greater than 100 µM. Moreover, the IC90 under setting [3] is greater than 100 µM.

For the origin of these results see PubChem BioAssay AID434987 (Southern Research Specialized Biocontainment Screening …, 2010).
